What was measured:
Assay type in all cases: in vivo
substantia nigra TH = assay: Substantia nigra TH expression in MPTP Parkinson's disease model mouse (immunofluorescence); settings: percentage of mean intensity of blank control group, gavage 21 days after MPTP modeling
Method: (§1) Neurotoxins can be used to establish PD animal models. Currently, 1-methyl-4-phenyl-1,2,3,6-tetrahydropyridine (MPTP) is the sole synthetic toxin which is recognized to induce PD symptoms in human and non-human primates and in mice. Using MPTP subacute modeling method, C57BL/6J male mice were intraperitoneally injected with MPTP 30 mg/kg, once a day for 5 consecutive days. The experiment animals were divided into blank control group, MPTP model group, and compound treatment group. For the […] compound treatment group, the compound was administrated by gavage for 21 consecutive days after the completion of modeling; for the MPTP model group, the normal saline was administrated by gavage for 21 consecutive days after the completion of modeling; and for the blank control group, the normal saline was first intraperitoneally injected for 5 days, and then administrated by gavage for 21 days.
The main cause of PD lies in the pathological changes in the substantia nigra-striatum projection system of the brain and the progressive degeneration and loss of dopaminergic neurons. Tyrosine hydroxylase (TH) is the first enzyme in the biosynthesis of catecholamine neurotransmitters, as well as the first rate-limiting enzyme in the dopamine synthesis. It plays an important role in the synthesis and metabolism of the neurotransmitter DA. The TH in PD animal models and patients has a wide range of abnormal changes, from the gene expression to the enzyme protein content and enzyme activity. The detection of the TH expression in the midbrain and substantia nigra of PD model mice can be used to evaluate the neuroprotective activity of the compound.
Half of experiment mice in each group were taken to separate the midbrain after perfusion and fixation. The tissue was trimmed, and the substantia nigra-striatum area was taken to prepare paraffin sections. The TH immunofluorescence staining was performed in the brain sections of mice in each group. […] The experiment included blank control group, MPTP model group, positive control group (caffeic acid phenethyl ester, CAPE), prototype control group (styryl sulfone compounds 3B, 3C, 3D, and 3G, whose structures are shown as above), and target compound group.

substantia nigra pp38 = assay: Substantia nigra pp38 protein expression in MPTP Parkinson's disease model mouse (immunofluorescence); settings: percentage of mean intensity of blank control group, gavage 21 days after MPTP modeling
Method: as §1
The p38 mitogen-activated protein kinase (p38 MAPK) is expressed in both neurons and glial cells, and is the intersection point of neuron-glial cell network information regulations. The activation of p38 signaling pathway is an important initiator of neuronal degeneration, which continuously induces the apoptosis of dopaminergic neurons in multiple ways. It has become a research hotspot for the treatment of PD. Studies have shown that the protective mechanism of CAPE against the death of primary cultured cerebellar granule neurons induced by glutamate lies in inhibiting the activation of p38 phosphorylation and in turn inhibiting the activation of the caspase 3 apoptotic pathway to prevent neuronal apoptosis. Therefore, the MPTP-induced PD mouse model can be used to investigate the inhibitory effect of the target compounds on the activation of p38 phosphorylation on the overall animal level.
Half of experiment mice in each group were taken to separate the midbrain after perfusion and fixation. The tissue was trimmed, and the substantia nigra-striatum area was taken to prepare paraffin sections. The double immunofluorescence staining for TH and phosphorylated p38 was performed to observe the coexpression of TH and phosphorylated p38, for the statistics of the change in the phosphorylated p38 protein expression. The experiment included blank control group, MPTP model group, positive control group (caffeic acid phenethyl ester, CAPE), prototype control group (styryl sulfone compounds 3B, 3C, 3D, and 3G, whose structures are shown as above), and target compound group.

midbrain p-α-s = assay: Midbrain p-α-s protein expression in MPTP Parkinson's disease model mouse (western-blotting); settings: midbrain total protein, GAPDH internal reference, gavage 21 consecutive days after MPTP modeling
Method: as §1
Alpha-synuclein is an “unfolded protein” in its natural state. It exists in a monomeric form, and participates in the physiological functions such as the release of neurotransmitters, the establishment of synaptic junctions, and the regulation of synaptic plasticity. Under pathological conditions, more than 90% of alpha-synuclein is phosphorylated at serine of position 129 and converted into phosphorylated alpha-synuclein (p-α-s), thereby forming Lewy bodies. The formation of Lewy bodies is one of the main pathological manifestations and pathological mechanisms for Parkinson's disease, and plays an important role in the formation and development of PD. The detection of the p-α-s expression in the midbrain and substantia nigra of PD model mice can evaluate the neuroprotective activity of the compound.
Half of experiment mice in each group were taken to extract the total midbrain protein, and the change in the midbrain P-α-s protein expression was determined by western-blotting using GAPDH as the internal reference. The experiment included blank control group, MPTP model group, positive control group (caffeic acid phenethyl ester, CAPE), prototype control group (styryl sulfone compounds 3B, 3C, 3D, and 3G, whose structures are shown as above), and target compound group.

GCLC = assay: Midbrain GCLC expression in MPTP Parkinson's disease model mouse (western blot); settings: midbrain, MPTP Parkinson's disease model mouse, western blot
Method: as §1
Oxidative stress is an important pathogenic mechanism of PD. Dopaminergic neurons are more sensitive to oxidative stress and are more susceptible to oxidative stress damage. Glutathione (GSH) is an important antioxidant substance in the cell, and glutamate cysteine ligase (GCL) is the rate-limiting enzyme for GSH synthesis, which is composed of catalytic subunit (GCLC) and regulatory subunit (GCLM). The increase of GCLC expression can promote the synthesis of GSH and enhance the ability of tissue cells against oxidative stress. GCL, a phase II enzyme, plays an important protective role by catalyzing the conversion of free radicals into non-toxic products and increasing their water solubility to facilitate the elimination of free radicals, and maintain the redox balance in the body. It plays an important role in the process of protecting cells against oxidative stress damage. The activation of p38 protein phosphorylation has a negative regulatory effect on phase II enzymes. […] Using GCLC as an indicator, the inhibitory effect of the target compounds on MPTP-induced oxidative stress damage in PD mice can be investigated.
GCLC is expressed in astrocytes, microglial cells, and neurons. The total proteins of the midbrain tissue of mice in each experiment group were extracted, to determine the expression of phase II enzyme GCLC in the midbrain of mice by western blot using GAPDH as the internal reference. The experiment included blank control group, MPTP model group, positive control group (caffeic acid phenethyl ester, CAPE), prototype control group (styryl sulfone compounds 3B, 3C, 3D), and 3G, whose structures are shown as above), and target compound group.

Row | SMILES | Expression (Immunofluorescence intensity %) (substantia nigra TH) [%] | Expression (Immunofluorescence intensity %) (substantia nigra pp38) [%] | Expression (p-α-s/GAPDH) (midbrain p-α-s) | Expression (GCLC/GAPDH) (GCLC)
1 | CCOC(CS(=O)(=O)/C=C/c1ccc(OC(C)=O)c(OC(=O)Nc2ccc(NC)cc2)c1)C(OCC)c1ccc(OCc2ccccc2)c(O)c1 (centres unmarked) [Compound H2-4, (E)-4-{2-[3-(4-benzyloxy-3-hydroxyphenyl)-2,3-diethoxypropyl]sulfonylethenyl}-2-[N-(4-methylaminophenyl)carbamoyloxy]phenyl acetate] | 95.20 ± 6.06 | 103.17 ± 12.58 | 0.53 ± 0.13 | 1.21 ± 0.08
2 | COCCN(C)C(=O)Oc1cc(/C=C/S(=O)(=O)CCc2cccc(-c3ccc(C)o3)c2)ccc1OC(C)=O [Compound J1-4, (E)-2-[N-(2-methoxyethyl)-N-methylcarbamoyloxy]-4-{2-[3-(5-methylfur-2-yl)phenylethylsulfonyl]ethenyl}phenyl acetate] | 88.65 ± 5.41 | 100.62 ± 13.35 | 0.47 ± 0.11 | 1.24 ± 0.10
3 | CC(Br)C(Br)COc1cc(/C=C/S(=O)(=O)CCc2ccc(OCC(F)(F)F)cc2)ccc1OC(=O)Nc1ccsc1 (centres unmarked) [Compound K1-3, (E)-2-(2,3-dibromobutoxy)-4-{2-[4-(2,2,2-trifluoroethoxy)phenylethylsulfonyl]ethenyl}phenyl-N-(thien-3-yl)carbamate] | 87.28 ± 4.11 | 73.08 ± 18.10 | 0.34 ± 0.10 | 1.13 ± 0.08
4 | C=CCOc1ccc(C/C=C/S(=O)(=O)/C=C/c2ccc(OC(C)=O)c(OC(=O)N(CC=C)CC=C)c2)cc1 [Compound K1-4, 4-{(E)-2-[(E)-3-(4-allyloxyphenyl)prop-1-en-1-yl]sulfonylethenyl}-2-(N,N-diallylcarbamoyloxy)phenyl acetate] | 74.20 ± 6.58 | 100.80 ± 5.48 | 0.45 ± 0.12 | 1.10 ± 0.07
5 | COc1cc(/C=C/S(=O)(=O)Cc2cc(OC)c(OC)c(OC)c2)ccc1OC(=O)N(c1ccccc1)c1ccccc1 [Compound K3-3, (E)-2-methoxy-4-{2-[(3,4,5-trimethoxyphenyl)mesyl]ethenyl}-phenyl-N,N-diphenylcarbamate] | 98.53 ± 3.08 | 111.17 ± 9.62 | 0.62 ± 0.11 | 0.86 ± 0.04
6 | O=C(NC(=O)C(F)(F)F)Oc1ccc(/C=C/S(=O)(=O)C(F)(F)c2ccc(Oc3ccccn3)cc2)cc1OC(=O)C(F)(F)C(F)(F)F [Compound L1-4, (E)-5-{2-[(4-[pyridin-2-yl-oxy]phenyl)difluoromethylsulfonyl]ethenyl}-2-[N-(2,2,2-trifluoroacetyl)carbamoyloxy]phenyl-2,2,3,3,3-pentafluoropropionate] | 83.22 ± 5.98 | 62.93 ± 17.51 | 0.38 ± 0.08 | 0.96 ± 0.10
7 | CCN(C)C(=O)Oc1ccc(/C=C/S(=O)(=O)CC(c2ccc(-c3ccc(OC)c(OC)c3)cc2)[N+](=O)[O-])cc1OC(=O)N(C)CC (centres unmarked) [Compound M1-1, (E)-4-{2-[2-(3′,4′-dimethoxy-[1,1′-biphenyl]-4-yl)-2-nitroethylsulfonyl]ethenyl}-1,2-phenylenebis(N-ethyl-N-methylcarbamate)] | 101.36 ± 5.21 | 98.35 ± 6.93 | 0.27 ± 0.08 | 1.30 ± 0.09
8 | CN(C)c1ccc(CC(=O)Oc2cc(/C=C/S(=O)(=O)C(Br)c3ccc(Cc4ccc(N(C)C)cc4)cc3)ccc2OC(=O)N2CCCC2C(F)(F)F)cc1 (centres unmarked) [Compound M1-5] | 87.24 ± 2.97 | 87.45 ± 11.05 | 0.24 ± 0.05 | 1.35 ± 0.08
9 | Cc1ccc(N2CCN(C(=O)Oc3ccc(/C=C/S(=O)(=O)CCCC(c4ccc(OC(=O)CN(C)C)cc4)N(C)C)cc3OC(=O)N(C)c3ccccc3)CC2)cc1 (centres unmarked) [Compound P1-1, (E)-4-{2-[4-(dimethylamino)-4-(4-(N,N-dimethylglycyloxy)phenyl)butylsulfonyl]ethenyl}-2-(N-methyl-N-phenylcarbamoyloxy)phenyl-4-(p-methylphenyl)piperazine-1-carboxylate] | 88.13 ± 3.43 | 99.55 ± 8.46 | 0.48 ± 0.12 | 0.98 ± 0.06
10 | COc1ccc(CC(=O)Oc2ccc(C(N)CS(=O)(=O)/C=C/c3ccc(OC(C)(C)C)c(OC(=O)N(C)c4ccccc4)c3)cc2)cc1 (centres unmarked) [Compound P1-3, (E)-4-{1-amino-2-[4-t-butoxy-3-(N-methyl-N-phenylcarbamoyloxy)styrylsulfonyl]ethyl}phenyl-2-(4-methoxyphenyl)acetate] | 79.20 ± 6.53 | 81.90 ± 9.52 | 0.31 ± 0.05 | 0.91 ± 0.11
11 | COc1ccc(CC(=O)Oc2ccc(/C(C)=C/S(=O)(=O)/C=C/c3ccc(OC(=O)N(C)C)c(O[Si](C)(C)CCl)c3)cc2)cc1 [Compound P1-7, 4-{(E)-1-[(E)-3-(chloromethyldimethylsiloxy)-4-(N,N-dimethylcarbamoyloxy)styrylsulfonyl]prop-1-en-2-yl}phenyl-2-(4-methoxyphenyl) acetate] | 88.07 ± 5.03 | 77.29 ± 13.06 | 0.27 ± 0.08 | 0.87 ± 0.08

Source: patent publication US12410124B2 (priority 2019, dated 2025)
